What follows are compounds tested on U23674 (mouse alveolar rhabdomyosarcoma primary culture).
Compound `Fc1ccc(-c2ncn(CCCN3CCOCC3)c2-c2ccncc2)cc1` has an IC50 cell viability greater than 10 µM. `O=C(NCC1CC1)c1ccc(-c2cccc(C(=O)NC3CC3)c2)cc1` was tested, and the IC50 cell viability was greater than 10 µM. With `NC(=O)c1ccc2c(-c3ccnc(NCCCO)n3)c(-c3ccc(F)cc3)nn2c1` the IC50 cell viability was greater than 10 µM. Compound `Cc1cc(O)cc(C)c1/C=C/c1cncc(-c2nn[nH]n2)c1` has an IC50 cell viability greater than 10 µM. `COc1cccc(-c2c[nH]c3c(N/N=C/c4ccncc4)ncnc23)c1` showed an IC50 cell viability greater than 10 µM. In the case of `COc1ccc2ncn(-c3cc(O[C@H](C)c4ccccc4Cl)c(C(N)=O)s3)c2c1`, the IC50 cell viability is reported as 2 µM. With `CCn1c(-c2nonc2N)nc2ccc(F)cc21` the IC50 cell viability was greater than 10 µM. With `CC(C)c1ccc(-c2cc(-c3cn[nH]c3-c3ccccn3)ccn2)cc1` the IC50 cell viability was greater than 10 µM. `COc1cc(N2CCN(C(C)C)CC2)ccc1Nc1nc(Nc2cccc3ncccc23)c2cc[nH]c2n1` showed an IC50 cell viability greater than 10 µM. For `COc1cc(/C=N/Nc2ncnc3c2cnn3C(C)C)ccc1O`, the IC50 cell viability was greater than 10 µM. Compound `CC1=C(C(=O)Nc2ccc3[nH]ncc3c2)C(c2ccc(F)cc2)NC(=O)N1` (configuration not stated) has an IC50 cell viability greater than 10 µM. Work on `COc1ccc(CNC(=O)c2ccc(-c3cc(-c4nnc(C)o4)ccc3C)cc2)cc1` yielded an IC50 cell viability greater than 10 µM. `COC(=O)c1sc(-n2cnc3cc(OC)c(OC)cc32)cc1OCc1ccccc1C(F)(F)F` was tested, and the IC50 cell viability was greater than 10 µM. Work on `N#Cc1c(NC(=O)c2ccc(F)cc2)sc2c1CCCC2` yielded an IC50 cell viability greater than 10 µM. `COc1ccc(C2=C(N3CCc4ccccc43)C(=O)NC2=O)cc1` showed an IC50 cell viability greater than 10 µM. In the case of `c1ccc(Cc2nc3ccc(Nc4ncnc5ccccc45)cc3[nH]2)cc1`, the IC50 cell viability is reported as greater than 10 µM. Compound `N#Cc1ccc2c(-c3ccnc(NC4CC4)n3)c(-c3ccc(F)cc3)nn2c1` has an IC50 cell viability greater than 10 µM. `NCc1ccc(-n2c(-c3nonc3N)nc3cnccc32)cc1` gave an IC50 cell viability of 3.9 µM. Compound `COc1cc2ncnc(Nc3ccc(C)c(O)c3)c2cc1OC` has an IC50 cell viability greater than 10 µM. `CNC(=O)c1ncccc1Nc1nc(Nc2cc3c(cc2OC)CCCN3C(=O)CN(C)C)nc2[nH]ccc12` showed an IC50 cell viability greater than 10 µM. `COc1cc2ncn(-c3cc(OCc4ccccc4C(F)(F)F)c(C(C)=O)s3)c2cc1OC` gave an IC50 cell viability greater than 10 µM. Compound `COc1cccc(COc2cc(-n3cnc4ccccc43)sc2C(N)=O)c1` has an IC50 cell viability greater than 10 µM. In the case of `COc1cc2ncnc(Nc3ccc4c(cnn4Cc4ccccc4)c3)c2cc1OC`, the IC50 cell viability is reported as greater than 10 µM. Work on `COc1cccc(-n2ncc3c(N/N=C/c4ccc(S(C)(=O)=O)cc4)ncnc32)c1` yielded an IC50 cell viability greater than 10 µM. Work on `CCn1c(-c2nonc2N)nc2c(C#CC(C)(C)O)nc(CN3CCCC3)cc21` yielded an IC50 cell viability greater than 10 µM. Work on `c1cc(-c2cnn3nc(N4CCOCC4)ccc23)nc(NC2CC2)n1` yielded an IC50 cell viability greater than 10 µM. Work on `CCN(CC)S(=O)(=O)c1ccc(OC)c(Nc2ncc(-c3ccccc3)o2)c1` yielded an IC50 cell viability greater than 10 µM. `O=C(Nc1n[nH]c2nc(-c3ccc(O)cc3)c(Br)cc12)C1CC1` showed an IC50 cell viability greater than 10 µM. With `OCCCNc1nccc(-c2c(-c3ccc(F)cc3)nn3cc(C(F)(F)F)ccc23)n1` the IC50 cell viability was greater than 10 µM. Compound `Cc1ccc2c(-c3ccnc(Nc4ccccc4)n3)c(-c3ccc(F)cc3)nn2n1` has an IC50 cell viability greater than 10 µM. Work on `CCc1nccc2c1nc(-c1nonc1N)n2CC` yielded an IC50 cell viability greater than 10 µM. `O=C1NC(=O)C(N2CCc3ccccc32)=C1c1ccc(Cl)cc1` showed an IC50 cell viability greater than 10 µM. For `COc1cccc(-n2ncc3c(N/N=C/c4cccc(F)c4)ncnc32)c1`, the IC50 cell viability was greater than 10 µM. For `CCn1c(-c2nonc2N)nc2c(C#CC(C)(C)O)ncc(OCC3CCNCC3)c21`, the IC50 cell viability was greater than 10 µM. Work on `CNC(=O)Oc1cc(C)c(/C=C/c2cncc(C(=O)NC)c2)c(C)c1` yielded an IC50 cell viability greater than 10 µM. `COc1cccc(/C=N/Nc2ncnc3c2cnn3-c2cccc(OC)c2)c1` gave an IC50 cell viability greater than 10 µM. In the case of `CCOc1ccc2c(-c3ccnc(Nc4cccc(C(F)(F)F)c4)n3)cnn2n1`, the IC50 cell viability is reported as greater than 10 µM. For `COc1ccc(-c2ccc3c(NC(=O)C4CC4)n[nH]c3n2)cc1`, the IC50 cell viability was greater than 10 µM. `COc1cc(Nc2nccc(-c3cnn4ncccc34)n2)cc(OC)c1` gave an IC50 cell viability of 4 µM. `Clc1ccc(CNc2nccc(-c3cnn4ncccc34)n2)cc1` was tested, and the IC50 cell viability was greater than 10 µM. For `N#Cc1c(NC(=O)c2cccc3ccccc23)sc2c1CCCC2`, the IC50 cell viability was 3.5 µM. In the case of `Fc1ccc(-c2nc3n(c2-c2ccncc2)CCS3)cc1`, the IC50 cell viability is reported as greater than 10 µM. In the case of `NC(=O)Cc1ccccc1Oc1nccc(-c2c(-c3ccc(F)cc3)ncn2C2CCNCC2)n1`, the IC50 cell viability is reported as greater than 10 µM. For `CN(C)c1cc2c(Nc3ccc4nc(Cc5ccccc5)[nH]c4c3)ncnc2cn1`, the IC50 cell viability was greater than 10 µM. `Cc1cccc(-c2[nH]ncc2-c2ccc3ncccc3n2)n1` gave an IC50 cell viability greater than 10 µM. Work on `Cc1cc(-c2ccccn2)cc(C)c1/C=C/c1cncc(-c2nn[nH]n2)c1` yielded an IC50 cell viability greater than 10 µM. In the case of `COc1cccc(-n2cnc3c(N/N=C/c4ccncc4)ncnc32)c1`, the IC50 cell viability is reported as greater than 10 µM. For `Cc1cccc2c(N=Nc3ccc(S(N)(=O)=O)cc3)c(O)[nH]c12`, the IC50 cell viability was greater than 10 µM. In the case of `O=C(OC1CNC(C#Cc2cc3ncnc(Nc4ccc5c(ccn5Cc5cc(F)ccc5F)c4)c3s2)C1)N1CCOCC1` (configuration not stated), the IC50 cell viability is reported as greater than 10 µM. Compound `O=C1NC(=O)C(c2ccc(Cl)cc2)=C1Nc1ccc(Cl)c(C(=O)O)c1` has an IC50 cell viability of 3.9 µM. Work on `CCn1c(-c2nonc2N)nc2cncc(C(=O)NCCNC)c21` yielded an IC50 cell viability greater than 10 µM. For `CS(=O)(=O)Nc1ccc(-c2ccc3c(NC(=O)C4CC4)n[nH]c3c2)cc1`, the IC50 cell viability was greater than 10 µM. Work on `COC(=O)Nc1nc2ccc(Oc3ccc(NC(=O)Nc4ccccc4)cc3)cc2[nH]1` yielded an IC50 cell viability greater than 10 µM. Work on `CC1(C)CC(n2cnc(-c3ccc(F)cc3)c2-c2ccnc(N)n2)CC(C)(C)N1` yielded an IC50 cell viability of 0.2 µM. Work on `COc1cc2ncn(-c3cc(OCCc4ccccc4)c(C(N)=O)s3)c2cc1OC` yielded an IC50 cell viability greater than 10 µM. `COC(=O)Nc1nc2ccc(Oc3ccc(NC(=O)Nc4cccc(C(=O)O)c4)cc3)cc2[nH]1` was tested, and the IC50 cell viability was greater than 10 µM. Compound `CNC(=O)c1cncc(/C=C/c2ccccc2Cl)c1` has an IC50 cell viability greater than 10 µM. Compound `CCCN1CCC(Oc2cc(Nc3nc(Nc4cccc(F)c4C(N)=O)c4cc[nH]c4n3)c(OC)cc2Cl)CC1` has an IC50 cell viability of 3.2 µM. In the case of `Nc1nccc(-c2c(-c3ccc(F)cc3)ncn2C2CCC(O)CC2)n1` (configuration not stated), the IC50 cell viability is reported as greater than 10 µM. For `Fc1ccc(-c2ncn(C3CCNCC3)c2-c2ccnc(Oc3ccc4c(c3)OCO4)n2)cc1`, the IC50 cell viability was greater than 10 µM. `CCn1c(-c2nonc2N)nc2c(C#CCN)ncc(OCCCN)c21` gave an IC50 cell viability greater than 10 µM. With `COC(=O)Nc1nc2ccc(Oc3ccc(NC(=O)Nc4cccc(Br)c4)cc3)cc2[nH]1` the IC50 cell viability was greater than 10 µM. Compound `CN(C)C(=O)O[C@H]1CN[C@H](C#Cc2cc3ncnc(Nc4ccc(OCc5cccc(F)c5)c(Cl)c4)c3s2)C1` has an IC50 cell viability greater than 10 µM. `NC(=O)c1sc(-n2cnc3ccccc32)cc1OCc1ccccc1Br` gave an IC50 cell viability greater than 10 µM. For `O=C(O[C@H]1CN[C@H](C#Cc2cc3ncnc(Nc4ccc(OCc5cccc(F)c5)c(Cl)c4)c3s2)C1)N1CCOCC1`, the IC50 cell viability was greater than 10 µM. `CCS(=O)(=O)c1ccc(OC)c(Nc2nccc(N(C)c3ccc4c(C)[nH]nc4c3)n2)c1` showed an IC50 cell viability greater than 10 µM. `N#Cc1c(NC(=O)CN2CCOCC2)sc2c1CCCC2` gave an IC50 cell viability greater than 10 µM. For `CS(=O)(=O)CCNCc1ccc(-c2ccc3ncnc(Nc4ccc(OCc5ccccc5)c(Cl)c4)c3c2)o1`, the IC50 cell viability was greater than 10 µM. Work on `COc1cc(C=NNc2ncnc3c2cnn3Cc2ccccc2)ccc1O` yielded an IC50 cell viability greater than 10 µM. Compound `Fc1ccc(-c2c(-c3ccncc3)nc3n2CCS3)cc1` has an IC50 cell viability greater than 10 µM. In the case of `CNC(=O)c1cncc(/C=C/c2c(Cl)cccc2Cl)c1`, the IC50 cell viability is reported as greater than 10 µM. `O=C(Nc1n[nH]c2nnc(-c3cccnc3)cc12)C1CC1` gave an IC50 cell viability greater than 10 µM.

— the supplement of paper PMC6580486
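Also: alveolar rhabdomyosarcoma tumor culture.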
